We go through 35 molecules from patent US11071730B2, “Substituted 6-azabenzimidazole compounds” (Gilead Sciences, Inc., priority 2018, dated 2021).

SMILES strings stand for the structures.

human HPK1 (MAP4K1), sequence (Q92918 17-274): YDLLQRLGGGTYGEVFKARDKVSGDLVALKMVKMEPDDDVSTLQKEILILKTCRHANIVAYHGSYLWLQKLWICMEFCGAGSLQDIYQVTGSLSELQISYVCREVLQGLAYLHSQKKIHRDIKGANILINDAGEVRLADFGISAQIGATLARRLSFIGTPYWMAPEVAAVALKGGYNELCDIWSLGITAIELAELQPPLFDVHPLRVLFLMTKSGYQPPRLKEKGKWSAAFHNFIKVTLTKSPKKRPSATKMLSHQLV

The first test concerns the target human HPK1 (MAP4K1) (Homo sapiens (Human), UniProt Q92918). Nature of the test: HPK1 IC50 Assay (TR-FRET biochemical kinase assay, STK S1 peptide substrate). The settings on record: recombinant human HPK1 kinase domain 0.15 nM, 10 μM ATP, 1 μM STK S1 peptide; geometric mean. On the procedure: The enzymatic activity of human HPK1 (MAP4K1) was monitored in a biochemical assay in the presence or absence of compounds and using a synthetic peptide substrate. An increase in phosphorylation of the peptide by HPK1 was indicative of its kinase activity.
Recombinant HPK1 kinase domain produced via baculovirus infection of insect cells was obtained from Proteros (Proteros Biostructures #PR-0322) and was pre-activated in the presence of 2 mM ATP (Sigma-Aldrich, cat #GE27-2056-01) and 2 mM magnesium chloride for 16 hours at 4° C. The protein reaction mixture was then loaded to a desalting column (Thermo Fisher Scientific, Cat #89889) to remove excess ATP. HPK1 was eluted with buffer containing 20 mM Tris (2-Amino-2-(hydroxymethyl)propane-1,3-diol) pH 8.0, 150 mM NaCl, 2 mM dithiothreitol and 5% glycerol, and was frozen at −80° C. for later use.
Ten nanoliters of test compounds dissolved in DMSO at various concentrations were dispensed into a 384-well ProxiPlate (PerkinElmer #6008289). Five microliters of a solution of recombinant HPK1 diluted in HPK1 kinase assay buffer (50 mM BES [N,N-Bis(2-hydroxyethyl)-2-aminoethanesulfonic acid], pH 7.0; 10 mM magnesium chloride; 0.01% Triton X-100; 1 mM dithiothreitol; 0.01% bovine serum albumin; 0.1 mM sodium orthovanadate) was added to the compound-containing plate and was incubated for 15 minutes at 25° C. Five microliters of a mixture of ATP (Sigma-Aldrich #A6559) and peptide substrate STK S1 (Cisbio #61ST1BLC) diluted in HPK1 kinase assay buffer was then added to start the reaction. Final concentrations were 0.15 nM for HPK1, 10 μM for ATP, and 1 μM for the STK S1 peptide substrate. The reaction mixture was incubated at 25° C. for 3 hours and was stopped with the addition of 10 μl of an EDTA (Ethylenediaminetetraacetic acid)-containing detection buffer (Cisbio #62SDBRDF) supplemented with Europium cryptate-labeled anti-phospho-serine/threonine antibodies (Cisbio #62ST1PEJ) and XL665-labeled streptavidin (Cisbio #610SAXLG). The mixture was incubated for 16 hours at room temperature and peptide phosphorylation was measured by time-resolved fluorescence energy transfer (665 nm/620 nm) on an Envision plate reader (PerkinElmer).
Data in Table 1 were normalized based on positive (staurosporine) and negative (DMSO) controls. Least squares curve fittings were performed using a four-parameter variable slope nonlinear regression model. IC50 is defined as the concentration of compound required to inhibit 50% of maximum phosphorylation. IC50 values from multiple experiments were averaged by geometric mean and the standard deviation was calculated.
In general terms: Time-resolved FRET reads energy transfer from a long-lived donor to a nearby acceptor.
Consider `CC(C)n1cnc2cc(-c3ccc4c(c3)N([C@H]3C[C@@H](N5CC6CCC(C6)C5)C3)C(=O)C43CCN(C(=O)[C@@H](C)O)CC3)nc(Nc3ccncc3F)c21` [Example 126], for which the half-inhibitory concentration (IC50) is 0.1 nM.
`CC(=O)N1CCC2(CC1)C(=O)N([C@H]1C[C@@H](N3CCCC4(CCC4)C3)C1)c1cc(-c3cc4ncn(C(C)C)c4c(Nc4ccncc4F)n3)ccc12` [Example 182]: the IC50 was 0.3 nM.
`CC(C)n1cnc2cc(-c3ccc4c(c3)N([C@H]3C[C@@H](N5CC6CCC(C6)C5)C3)C(=O)C43CCN(C(=O)C4COC4)CC3)nc(Nc3ccncc3F)c21` [Example 124]: the IC50 came to 0.07 nM.
On the same count and under the same terms, to `CC(C)n1cnc2cc(-c3ccc4c(c3)N([C@H]3C[C@@H](N5CC6CCC(C6)C5)C3)C(=O)C43CCN(C(=O)CO)CC3)nc(Nc3ccncc3F)c21` [Example 128] belongs 0.07 nM; to `CC(C)n1cnc2cc(-c3ccc4c(c3)N([C@H]3C[C@@H](N5CCC(C)(C)C5)C3)C(=O)C43CCN(C(=O)c4ncco4)CC3)nc(Nc3ccncc3F)c21` [Example 159], 0.4 nM; to `CCC(=O)N1CCC2(CC1)C(=O)N([C@H]1C[C@@H](N3CCCCC3)C1)c1cc(-c3cc4ncn(C(C)C)c4c(Nc4ccncc4F)n3)ccc12` [Example 167, 6-(4-((3-fluoropyridin-4-yl)amino)-3-isopropyl-3H-imidazo[4,5-c]pyridin-6-yl)-1-((1s,3s)-3-(piperidin-1-yl)cyclobutyl)-1′-propionylspiro[indoline-3,4′-piperidin]-2-one], 0.4 nM.
As to `CC(C)n1cnc2cc(-c3ccc4c(c3)N([C@H]3C[C@@H](N5CCCC6(CC6)C5)C3)C(=O)C43CCN(C(=O)C(C)(C)CO)CC3)nc(Nc3ccncc3F)c21` [Example 122], the IC50 came to 0.2 nM.
The same measure, in the same setting: as for `CC(C)n1cnc2cc(-c3ccc4c(c3)N([C@H]3C[C@@H](N5CC(C)(C)C5)C3)C(=O)C4(C)C)nc(Nc3cc(CO)ncc3F)c21` [Example 100], the figure is 3.1 nM.
As to `COCC(C)(C)C(=O)N1CCC2(CC1)C(=O)N([C@H]1C[C@@H](N3CCCCC3)C1)c1cc(-c3cc4ncn(C(C)C)c4c(Nc4ccncc4F)n3)ccc12` [Example 140], the IC50 is 0.3 nM.
In the case of `COC(C)(C)CN(C)[C@H]1C[C@@H](N2C(=O)C3(CCN(C(C)=O)CC3)c3ccc(-c4cc5ncn(C(C)C)c5c(Nc5ccncc5F)n4)cc32)C1` [Example 179], the IC50 is 4.5 nM.
With `CC(=O)N1CCC2(CC1)C(=O)N([C@H]1C[C@@H](N3C[C@H]4CC[C@H]4C3)C1)c1cc(-c3cc4ncn(C(C)C)c4c(Nc4ccncc4F)n3)ccc12` [Example 172], the IC50 was 0.1 nM.
On the same count and under the same terms, as for `CC(=O)N1CCC2(CC1)C(=O)N([C@H]1C[C@@H](N3CC4CC4C3)C1)c1cc(-c3cc4ncn(C(C)C)c4c(Nc4ccncc4F)n3)ccc12` (some centres unmarked) [Example 180], the figure is 1.3 nM; as for `CCn1cnc2cc(-c3ccc4c(c3)N([C@H]3C[C@@H](N5CCCCC5)C3)C(=O)C43CCN(C(=O)C(C)(C)C)CC3)nc(Nc3ccncc3F)c21` [Example 169], 0.8 nM.
Consider `CO[C@H]1C[C@@H](C(=O)N2CCC3(CC2)C(=O)N([C@H]2C[C@@H](N4CCCCC4)C2)c2cc(-c4cc5ncn(C(C)C)c5c(Nc5ccncc5F)n4)ccc23)C1` [Example 136, 6-(4-((3-fluoropyridin-4-yl)amino)-3-isopropyl-3H-imidazo[4,5-c]pyridin-6-yl)-1′-((1s,3 S)-3-methoxycyclobutane-1-carbonyl)-1-((1s,3 S)-3-(piperidin-1-yl)cyclobutyl)spiro[indoline-3,4′-piperidin]-2-one], for which the IC50 came out at 0.5 nM.
As for `CC(C)n1cnc2cc(-c3ccc4c(c3)N([C@H]3C[C@@H](N5C[C@H]6CC[C@H]6C5)C3)C(=O)C43CCN(C(=O)C4(C)COC4)CC3)nc(Nc3ccncc3F)c21` [Example 110], the IC50 was 0.2 nM.
In the case of `CC(C)n1cnc2cc(-c3ccc4c(c3)N([C@H]3C[C@@H](N5CCCCC5)C3)C(=O)C43CCN(C(=O)C(C)(C)CO)CC3)nc(Nc3ccncc3F)c21` [Example 106, 6-(4-((3-fluoropyridin-4-yl)amino)-3-isopropyl-3H-imidazo[4,5-c]pyridin-6-yl)-1′-(3-hydroxy-2,2-dimethylpropanoyl)-1-((1s,3s)-3-(piperidin-1-yl)cyclobutyl)spiro[indoline-3,4′-piperidin]-2-one], the IC50 came out at 0.3 nM.
As for `CC[C@H](O)C(=O)N1CCC2(CC1)C(=O)N([C@H]1C[C@@H](N3CCCCC3)C1)c1cc(-c3cc4ncn(C(C)C)c4c(Nc4ccncc4F)n3)ccc12` [Example 115], the IC50 was determined as 0.4 nM.
Consider `Cc1cc(Nc2nc(-c3ccc4c(c3)N([C@H]3C[C@@H](N5CCC(C)(C)C5)C3)C(=O)C43CCN(C(=O)C4CCO4)CC3)cc3ncn(C(C)C)c23)c(F)cn1` (some centres unmarked) [Example 133], for which the half-inhibitory concentration (IC50) was 0.2 nM.
For `CCC(=O)N1CCC2(CC1)C(=O)N([C@H]1C[C@@H](N3CCCCC3)C1)c1cc(-c3cc4ncn(CC)c4c(Nc4ccncc4F)n3)ccc12` [Example 168], the IC50 was determined as 2.6 nM.

The test is the same for the next values; noted with them: recombinant human HPK1 kinase domain 0.15 nM, 10 μM ATP, 1 μM STK S1 peptide; geometric mean of multiple experiments.
With `CNC(=O)c1cc(Nc2nc(-c3ccc4c(c3)N([C@H]3C[C@@H](N5CCCCC5)C3)C(=O)C4(C)C)cc3ncn(C(C)C)c23)c(F)cn1` [Example 88], the IC50 worked out at 8.2 nM.
Still for that read-out and setting: to `CC(C)n1cnc2cc(-c3cnc4c(c3)N([C@H]3C[C@@H](N5CCCCC5)C3)C(=O)C4(C)C)nc(Nc3ccnc(F)c3F)c21` [Example 95] belongs 2.5 nM; to `CC(C)n1cnc2cc(-c3ccc4c(c3)N([C@H]3C[C@@H](N5CCC(F)CC5)C3)C(=O)C43CCN(C4COC4)CC3)nc(Nc3ccncc3F)c21` [Example 43], 1.1 nM; to `CC[C@H](C)n1cnc2cc(-c3ccc4c(c3)N([C@H]3C[C@@H](N5CCCCC5)C3)C(=O)C43CCN(C4COC4)CC3)nc(Nc3ccncc3F)c21` [Example 89], 0.5 nM.
With `CC(C)n1cnc2cc(-c3ccc4c(c3)N([C@H]3C[C@@H](N5CCCCC5)C3)C(=O)C43CCN(C(=O)C45CC(F)(C4)C5)CC3)nc(Nc3ccncc3F)c21` [Example 28], the IC50 was determined as 0.1 nM.
Same read-out and setting: as for `CC(C)n1cnc2cc(-c3ccc4c(c3)N([C@H]3C[C@@H](N5CCCCC5)C3)C(=O)C43CCN(C(=O)C4CCO4)CC3)nc(Nc3ccncc3F)c21` (some centres unmarked) [Example 22], the figure is 0.3 nM; as for `CC(C)n1cnc2cc(-c3ccc4c(c3)N([C@H]3C[C@@H](N5CCCCC5)C3)C(=O)C43CCN(C4COC4)CC3)nc(Nc3ccnc(F)c3F)c21` [Example 91, 6-(4-((2,3-difluoropyridin-4-yl)amino)-3-isopropyl-3H-imidazo[4,5-c]pyridin-6-yl)-1′-(oxetan-3-yl)-1-((1s,3s)-3-(piperidin-1-yl)cyclobutyl)spiro[indoline-3,4′-piperidin]-2-one], 0.2 nM; as for `CC(C)n1cnc2cc(-c3ccc4c(c3)N([C@H]3C[C@@H](N5CCCCC5)C3)C(=O)C43CCN(C(=O)C4(C)COC4)CC3)nc(Nc3ccc(F)nc3F)c21` [Example 96], 0.2 nM.
On the same count and under the same terms, to `CC(C)n1cnc2cc(-c3ccc4c(c3)N([C@H]3C[C@@H](N5CC[C@H](F)C5)C3)C(=O)C43CCN(C4COC4)CC3)nc(Nc3ccncc3F)c21` [Example 46] belongs 1.1 nM; to `CC(C)n1cnc2cc(-c3ccc4c(c3)N([C@H]3C[C@@H](NCC(C)(C)F)C3)C(=O)C4(C)C)nc(Nc3ccncc3F)c21` [Example 64], 1.3 nM; to `CC(C)n1cnc2cc(-c3ccc4c(c3)N([C@H]3C[C@@H](N5CC6C(C5)C6(C)C)C3)C(=O)C4(C)C)nc(Nc3ccncc3F)c21` (some centres unmarked) [Example 60], 0.3 nM.
The same measure, in the same setting: to `CC(C)CN[C@H]1C[C@@H](N2C(=O)C(C)(C)c3ccc(-c4cc5ncn(C(C)C)c5c(Nc5ccncc5F)n4)cc32)C1` [Example 84] belongs 1.7 nM; to `CC(C)n1cnc2cc(-c3ccc4c(c3)N([C@H]3C[C@@H](N5CC(F)C6(CC6)C5)C3)C(=O)C43CCN(C4COC4)CC3)nc(Nc3ccncc3F)c21` (some centres unmarked) [Example 49], 0.5 nM; to `CC(C)n1cnc2cc(-c3ccc4c(c3)N([C@H]3C[C@@H](N5CCCC(C)(C)C5)C3)C(=O)C4(C)C)nc(Nc3ccc(=O)n(C)c3)c21` [Example 81], 0.2 nM.
On to `COC(=O)N1CCC2(CC1)C(=O)N([C@H]1C[C@@H](N3CCCCC3)C1)c1cc(-c3cc4ncn(C(C)C)c4c(Nc4ccncc4F)n3)ccc12` [Example 30], for which the IC50 amounted to 0.6 nM.
Consider `CC(C)n1cnc2cc(-c3ccc4c(c3)N([C@H]3C[C@@H](N5CCC(C)(C)C5)C3)C(=O)C43CCOCC3)nc(Nc3ccncc3F)c21` [Example 71], for which the IC50 turned out to be 0.2 nM.

What is called IC50 is the point on the concentration scale where inhibition reaches its midpoint.
